Experimental data as given in PMC12717099, “Peptidoglycan recruitment by a penicillin binding protein” (Nature Communications, 2025).

Columns and labels:
[1] = tested on: E. faecium D344SRF, Wild Type; assay type: cell-based, Enterococcus faecium; conditions: strain Wild Type; disks Ampicillin 10 μg, Penicillin 10 U, Ceftriaxone 30 μg; BHI agar, 37 °C, 24 h; n=3
Experimental: (§1) E. faecium strains were streaked fresh from −80 °C stored glycerol stocks onto brain heart infusion (BHI) agar plates and incubated for 18 h at 37 °C. Strains harboring the plasmid derivatives were grown under antibiotic pressure on agar plates containing kanamycin at 1500 µg/ml. A single colony was inoculated into BHI or BHI-kanamycin (1500 µg/ml) for overnight cultures (18 h).
(§2) Antibiotic disks used were manufactured by BD BBL^TM. Disk diffusion assays were performed according to the Clinical and Laboratory Standards Institute (CLSI) guidance. Overnight cultures were inoculated into 3 ml of BHI or BHI-kanamycin (1500 µg/ml) broth with a dilution of 1:100 and incubated until an OD600 of ~0.5 was reached. The OD600 was adjusted to 0.01 to get the inoculum suspension. […] The plates were incubated at 37 °C and the zones of inhibition were measured after 24 h. All experiments were conducted in triplicate.

[2] = tested on: E. faecium D344SRF pCWR624Δpbp5 (empty plasmid); test: Disk diffusion assay, pCWR624Δpbp5; assay type: cell-based, Enterococcus faecium; conditions: strain pCWR624Δpbp5; 37 °C, 24 h; n=3
Experimental: (§3) The synthetic genes were purchased from GeneWiz (South Plainfield, NJ). The ribosome binding site sequence AGGAGG (Shine-Dalgarno), and a string of five A’s followed by the sequence […], that corresponds to the first 15 bp found in pbp5 from E. faecium C68 were added upstream of the START codon. The terminator sequence […] was added downstream of the STOP codon. BamHI restriction sites were added to the flanking 5′ and 3′ ends. The synthetic genes were inserted into the vector pCWR624Δpbp5. This vector was derived from pCWR624[10], in which the pbp5 gene from D366 was excised by digestion with BamHI followed by re-ligation of the vector, allowing subsequent insertion of modified synthetic pbp5s into the BamHI site downstream of ftsWEfm and psr from E. faecium C68[10]. The synthetic genes were inserted in a BamHI site located downstream of psr. The proper orientation was confirmed by PCR amplification using the forward primer OR_pbp5_FOR_1 (5′-[…]-3′) and the reverse primer OR_pbp5_REV_1 (5′-[…]-3′). Plasmids were sequence verified for the specific binding site mutations. The resulting constructions were electroporated into the natural pbp5(-) mutant E. faecium D344SRF with a selection on brain heart infusion agar (BHI) plates containing kanamycin (1500 µg/ml).
as §1
as §2, with “reached.” for “reached. The OD600 was adjusted to 0.01 to get the inoculum suspension.”, “All experiments were conducted in triplicate.” left out

[3] = tested on: E. faecium D344SRF pCWR624Δpbp5_pbp5_V5; test: Disk diffusion assay, pbp5_V5; assay type: cell-based, Enterococcus faecium; conditions: strain pbp5_V5 (Q396A_E397A); 37 °C, 24 h; n=3
Experimental: as §3, §1
as §2, with “reached.” for “reached. The OD600 was adjusted to 0.01 to get the inoculum suspension.”, “All experiments were conducted in triplicate.” left out

[4] = tested on: E. faecium D344SRF pCWR624Δpbp5 (empty plasmid); test: MIC by broth microdilution, pCWR624Δpbp5; assay type: cell-based, Enterococcus faecium; conditions: strain pCWR624Δpbp5; 37 °C, 20 h; n=3
Experimental: as §3, §1
(§4) MIC determination was performed using a standard broth microdilution technique in duplicate from independent cultures. Overnight cultures were inoculated into 3 ml of BHI or BHI-kanamycin (1500 µg/ml) broth in a dilution of 1:100 and incubated until an OD600 of ~0.5 was reached. Cultures were diluted 1:1000 and inoculated into the 96-well plates with the corresponding antibiotics to be tested. Plates were incubated at 37 °C for 20 h and read by eye. […]

[5] = tested on: E. faecium D344SRF pCWR624Δpbp5_pbp5_V1; test: MIC by broth microdilution, pbp5_V1; assay type: cell-based, Enterococcus faecium; conditions: strain pbp5_V1 (N523A); 37 °C, 20 h; n=3
Experimental: as §3, §1, §4

[6] = tested on: E. faecium D344SRF pCWR624Δpbp5_pbp5_V3; test: MIC by broth microdilution, pbp5_V3; assay type: cell-based, Enterococcus faecium; conditions: strain pbp5_V3 (loop 625-631); 37 °C, 20 h; n=3
Experimental: as §3, §1, §4

PBP2B = test: 1D 1H STD NMR of SP2 with PBP2B; assay type: binding, E. faecalis; conditions: for STD amplification factor, 2000: protein:peptide 1:100, 2 s saturation
Description: Total saturation time for STD measurements was 2 s.
Overlapped peaks were completely excluded from the analysis.

CO/N=C(\C(=O)N[C@@H]1C(=O)N2C(C(=O)O)=C(CSc3nc(=O)c(=O)[nH]n3C)CS[C@H]12)c1csc(N)n1 [Ceftriaxone, ceftriaxone]
Zone Size (mm) [Range] [1]: 20 [20-26] mm | Zone Size (mm) [Range] [2]: 24 [22-28] mm | Zone Size (mm) [Range] [3]: 0 [0] mm | MIC (µg/ml) [Range] [4]: 50 [25-100] µg/ml | MIC (µg/ml) [Range] [5]: 3200 [1600-3200] µg/ml | MIC (µg/ml) [Range] [6]: 25 [25] µg/ml

D-Lac-L-Ala-D-iGln-L-Lys(D-iAsn) [SP2]
STD % to SP1 (PBP2B; 1H DLacβ): 24.9553% | STD amplification factor as fraction of highest SP1:PBP5 value (PBP2B; 1H DLacβ): 0.2496 | STD amplification factor, 2000 (PBP2B; 1H DLacβ): 6.715 | STD % to SP1 (PBP2B; 1H DQ2β (first listed)): 52.517% | STD amplification factor as fraction of highest SP1:PBP5 value (PBP2B; 1H DQ2β (first listed)): 0.5252 | STD amplification factor, 2000 (PBP2B; 1H DQ2β (first listed)): 14.1315 | STD % to SP1 (PBP2B; 1H DQ2β (second listed)): 59.0483% | STD amplification factor as fraction of highest SP1:PBP5 value (PBP2B; 1H DQ2β (second listed)): 0.5905 | STD amplification factor, 2000 (PBP2B; 1H DQ2β (second listed)): 15.8889 | STD % to SP1 (PBP2B; 1H DQ2γ): 22.6012% | STD amplification factor as fraction of highest SP1:PBP5 value (PBP2B; 1H DQ2γ): 0.226 | STD amplification factor, 2000 (PBP2B; 1H DQ2γ): 6.082 | STD % to SP1 (PBP2B; 1H K3α): 41.2007% | STD amplification factor as fraction of highest SP1:PBP5 value (PBP2B; 1H K3α): 0.412 | STD amplification factor, 2000 (PBP2B; 1H K3α): 11.0865 | STD % to SP1 (PBP2B; 1H K3β): 85.7339% | STD amplification factor as fraction of highest SP1:PBP5 value (PBP2B; 1H K3β): 0.8573 | STD amplification factor, 2000 (PBP2B; 1H K3β): 23.0696 | STD % to SP1 (PBP2B; 1H K3γ): 40.677% | STD amplification factor as fraction of highest SP1:PBP5 value (PBP2B; 1H K3γ): 0.4068 | STD amplification factor, 2000 (PBP2B; 1H K3γ): 10.9455 | STD % to SP1 (PBP2B; 1H K3δ): 54.3796% | STD amplification factor as fraction of highest SP1:PBP5 value (PBP2B; 1H K3δ): 0.5438 | STD amplification factor, 2000 (PBP2B; 1H K3δ): 14.6327 | STD % to SP1 (PBP2B; 1H K3ε): 13.0751% | STD amplification factor as fraction of highest SP1:PBP5 value (PBP2B; 1H K3ε): 0.1308 | STD amplification factor, 2000 (PBP2B; 1H K3ε): 3.518 | STD % to SP1 (PBP2B; 1H LA1α): 44.8726% | STD amplification factor as fraction of highest SP1:PBP5 value (PBP2B; 1H LA1α): 0.4487 | STD amplification factor, 2000 (PBP2B; 1H LA1α): 12.0745 | STD % to SP1 (PBP2B; 1H LA1β): 28.2398% | STD amplification factor as fraction of highest SP1:PBP5 value (PBP2B; 1H LA1β): 0.2824 | STD amplification factor, 2000 (PBP2B; 1H LA1β): 7.599 | STD % to SP1 (PBP2B; 1H iNα,DQ2α): 20.0674% | STD amplification factor as fraction of highest SP1:PBP5 value (PBP2B; 1H iNα,DQ2α): 0.2007 | STD amplification factor, 2000 (PBP2B; 1H iNα,DQ2α): 5.4 | STD % to SP1 (PBP2B; 1H iNβ): 22.5751% | STD amplification factor as fraction of highest SP1:PBP5 value (PBP2B; 1H iNβ): 0.2258 | STD amplification factor, 2000 (PBP2B; 1H iNβ): 6.075
